For six compounds, melting point results are on record in patent US20070032520A1, “Indol-5-yl sulfonamide derivatives, their preparation and their use 5-ht-6 as modulators” (Laboratorios Del Dr. Esteve S.A, priority 2003, published 2007).

Regarding `CN(C)CCn1ccc2cc(NS(=O)(=O)c3cccc4ccccc34)ccc21` [Example 3, N-[1-(2-dimethylaminoethyl)-1H-indole-5-yl]-naphthalene-1-sulfonamide], the melting point was in the range of 179 to 181 °C.
The figure for `CN(C)CCn1ccc2cc(NS(=O)(=O)c3cccc4c(Cl)cccc34)ccc21` [Example 4, N-[1-(2-dimethylaminoethyl)-1H-indole-5-yl]-5-chloronaphthalene-1-sulfonamide] is 172 to 174 °C; for `CN(C)CCn1ccc2cc(NS(=O)(=O)c3c(Cl)nc4sccn34)ccc21` [Example 11, N-[1-(2-dimethylaminoethyl)-1H-indole-5-yl]-6-chloroimidazo[2,1-b]thiazole-5-sulfonamide] it is 50 to 52 °C.
The result for `CN(C)CCn1ccc2cc(NS(=O)(=O)c3cc(Cl)cc(Cl)c3)ccc21` [Example 12, N-[1-(2-dimethylaminoethyl)-1H-indole-5-yl]-3,5-dichlorobenzenesulfonamide] reads 124 to 126 °C.
The result for `CN(C)CCn1ccc2cc(NS(=O)(=O)c3cccc(Br)c3)ccc21` [Example 13, N-[1-(2-dimethylaminoethyl)-1H-indole-5-yl]-3-bromobenzenesulfonamide] reads 114 to 116 °C.
The compound `CN(C)CCn1ccc2cc(NS(=O)(=O)c3cc(Cl)c(Cl)s3)ccc21` [Example 20, N-[1-(2-dimethylaminoethyl)-1H-indole-5-yl]-4,5-dichlorothiophene-2-sulfonamide] came in with a melting point of 120 to 123 °C.
